Source: the OPERA property sets (Mansouri et al. 2018)

Conditions: for log10 BCF / log10 biotransformation half-life (days): fish

CCOc1ccc(C)cc1
boiling point: 188 °C

CCCCC(=O)N(C)C
melting point: -51 °C

Nc1nc(F)nc2c1ncn2[C@@H]1O[C@H](CO)[C@@H](O)[C@@H]1O
melting point: 260 °C

CCC(C)C1(CC)C(=O)NC(=S)NC1=O (configuration not stated)
melting point: 169 °C

O=C(Cl)c1ccc2ccccc2c1
boiling point: 305 °C
melting point: 51 °C

C=C[C@H]1CN2CCC1C[C@@H]2[C@@H](O)c1ccnc2ccccc12 (some centres not stated)
melting point: 238 °C

Clc1cccc(-c2ccccc2)c1
boiling point: 284 °C
log10 Henry constant (atm·m³/mol): -3.21
log10 Koa: 6.82
log10 vapour pressure (mmHg): -2.13
melting point: 16 °C

CCCCCC[Si](Cl)(CCCCCC)CCCCCC
ready biodegradability: not readily biodegradable

CCOC(=O)c1ccccc1C
boiling point: 227 °C

CCCCCCCCCCC(=O)OCC
log10 vapour pressure (mmHg): -2.37
melting point: -15 °C

Cc1ccc(C)o1
boiling point: 93.5 °C
melting point: -62.8 °C

FC(F)(F)C(F)(Cl)Cl
boiling point: 4 °C
log10 vapour pressure (mmHg): 3.21
melting point: -56.6 °C

CC(C)CC(C)(C)C(C)C
boiling point: 153 °C

OC1CCOC1 (configuration not stated)
boiling point: 181 °C

C=C(Cl)CO
ready biodegradability: readily biodegradable

CCCC(=O)CC(C)C
boiling point: 155 °C

C[C@H]1C[C@H]1C(=O)O
boiling point: 191 °C

CCN(CC)C(=O)C(Cl)=C(C)OP(=O)(OC)OC
log10 Koc (L/kg): 0.85

FC(C(F)(F)F)C(F)(F)F
boiling point: -17.3 °C
log10 vapour pressure (mmHg): 3.53
melting point: -127 °C

N#CCN(CC#N)CCN(CC#N)CC#N
melting point: 128 °C

CC(C)COC(=O)c1ccc(N)cc1
melting point: 64.5 °C

O=C(CCl)c1ccc(Cl)cc1
boiling point: 270 °C
melting point: 102 °C

CC(S)C(=O)NCC(=O)O (configuration not stated)
melting point: 96 °C

CCC(C)C(C)O (configuration not stated)
boiling point: 134 °C

COCc1ccco1
boiling point: 132 °C

COCC(C)OC(C)=O (configuration not stated)
boiling point: 146 °C
log10 Koc (L/kg): 0.36
log10 vapour pressure (mmHg): 0.593

COc1cc(Cl)c(Cl)cc1Cl
boiling point: 254 °C
melting point: 77.5 °C
log10 BCF: 2.81

Clc1ccc(Cl)nc1
melting point: 60.5 °C

CN(C)c1ccc(CO)cc1
melting point: 69 °C

CCCCNCCO
boiling point: 199 °C
melting point: -2 °C

COC(C)(C)CCOC(C)=O
ready biodegradability: readily biodegradable

N[C@@H](Cc1cc(I)c(O)c(I)c1)C(=O)O
melting point: 213 °C

OC1(c2ccccc2)CCCCC1
melting point: 63.5 °C

CCOC(=O)CCC=O
boiling point: 162 °C

CCC=C(C)C=C(C)C
boiling point: 138 °C

C#CC(C)=CC
boiling point: 66.5 °C

CCCCN1CCCC1
boiling point: 154 °C
ready biodegradability: readily biodegradable

O=C(Cl)c1cccc(Cl)c1
boiling point: 225 °C
log10 vapour pressure (mmHg): -0.854

Cl.Cl.Cl.Cl.Nc1ccc(-c2ccc(N)c(N)c2)cc1N
melting point: 179 °C

Cc1ccc(S(=O)(=O)Oc2c(C(=O)c3ccc(Cl)cc3Cl)c(C)nn2C)cc1
melting point: 118 °C

Nc1ccc(C(F)(F)F)cc1
melting point: 38 °C

Nc1ccccc1S
boiling point: 234 °C
melting point: 26 °C

CC1(C)[C@H](C(=O)OCc2cccc(Oc3ccccc3)c2)[C@@H]1C=C(Cl)Cl (single isomer, unassigned)
log10 BCF: 2.65
log10 biotransformation half-life (days): 0.37

CC1CCCC1=O (configuration not stated)
boiling point: 140 °C
melting point: -75 °C

[O-][n+]1cccc(O)c1
melting point: 191 °C

Clc1ccc2oc3c(Cl)c(Cl)c(Cl)c(Cl)c3c2c1Cl
log10 Koa: 10.9

CCCCOC(N)=O
melting point: 53 °C

Oc1ccc2cc(Cl)ccc2c1
melting point: 116 °C

CCCCC(=O)CCCC
boiling point: 188 °C
log10 vapour pressure (mmHg): -0.258
melting point: -3.8 °C

O=c1n(CCCN2CCN(c3cccc(Cl)c3)CC2)nc2ccccn12
melting point: 87 °C

c1ccc2cc3ccccc3cc2c1
boiling point: 340 °C
log10 Henry constant (atm·m³/mol): -4.25
log10 Koa: 7.55
log10 Koc (L/kg): 4.31
log10 biodegradation half-life (days): 2.09
log10 vapour pressure (mmHg): -5.19
melting point: 215 °C
ready biodegradability: not readily biodegradable
log10 BCF: 3.26
log10 biotransformation half-life (days): 0.65

OCN(CO)c1nc(N(CO)CO)nc(N(CO)CO)n1
melting point: 137 °C

C=CCCCc1ccccc1
boiling point: 201 °C

OCc1cccc(CO)c1
melting point: 57 °C

Clc1ccc(-c2c(Cl)c(Cl)c(Cl)c(Cl)c2Cl)c(Cl)c1Cl
log10 Henry constant (atm·m³/mol): -4.96
log10 biotransformation half-life (days): 2.54

O=c1[nH]c2ccccc2c(-c2ccccc2)c1O
melting point: 268 °C

CC(=O)C=Cc1ccco1
melting point: 39.5 °C

COC(=O)NS(=O)(=O)c1ccc(N)cc1
log10 Koc (L/kg): 1.6
melting point: 144 °C

CCC(C)(C)c1ccccc1
boiling point: 192 °C
ready biodegradability: not readily biodegradable

Clc1ccc2ccc(Cl)cc2c1
log10 Koa: 6.7

CCCCOc1ccccc1
boiling point: 210 °C
log10 vapour pressure (mmHg): -0.529
melting point: -19.4 °C

Fc1cc(F)nc(F)c1
boiling point: 94.5 °C

OCc1c(F)c(F)c(F)c(F)c1F
boiling point: 181 °C
melting point: 37.5 °C

O=C1NC(=O)c2cc([N+](=O)[O-])ccc21
melting point: 201 °C

c1ccc(-c2ncoc2-c2ccccc2)cc1
melting point: 44 °C

O=C(O)C(F)(F)C(F)(F)C(F)(F)C(F)(F)C(F)(F)C(F)(F)C(F)(F)F
boiling point: 189 °C
log10 vapour pressure (mmHg): -0.28
melting point: 55 °C
ready biodegradability: not readily biodegradable

CCCCCCCC/C=C\CCCCCCCC(=O)OCCCC
melting point: -26.5 °C

CC(C)C[C@H](N)C(=O)O
melting point: 293 °C

CCC(=O)c1ccc(N)cc1
melting point: 140 °C

CN(C)c1ccc(C(=N)c2ccc(N(C)C)cc2)cc1
boiling point: 330 °C
log10 Koc (L/kg): 3.31
melting point: 136 °C
ready biodegradability: not readily biodegradable

CC[C@@H](C(=O)[C@@H](C)[C@@H](O)[C@H](C)[C@@H]1O[C@@H]([C@@H](CC)C(=O)O)CC[C@@H]1C)[C@H]1O[C@]2(C=C[C@@H](O)[C@]3(CC[C@@](C)([C@H]4CC[C@](O)(CC)[C@H](C)O4)O3)O2)[C@H](C)C[C@@H]1C
melting point: 113 °C

O=C(O)CSCC(=O)O
melting point: 129 °C

OCc1ccccc1C(c1ccc(O)cc1)c1ccc(O)cc1
melting point: 202 °C

NCCCNCCCN
melting point: -14 °C

OCCCCCCCCCCCCO
melting point: 81.3 °C

C=CC(C)O (configuration not stated)
ready biodegradability: readily biodegradable

CC(=O)OCC(C)C
boiling point: 116 °C
log10 Henry constant (atm·m³/mol): -3.34
log10 Koa: 3.45
log10 vapour pressure (mmHg): 1.25
melting point: -98.8 °C
ready biodegradability: readily biodegradable

COc1cc(OC)cc(C(=O)O)c1
log10 vapour pressure (mmHg): -6.86
melting point: 186 °C

Cc1cc(N)ccc1N=Nc1ccc([N+](=O)[O-])cc1
log10 vapour pressure (mmHg): -9.15

CC=C(Cl)Cl
boiling point: 76.5 °C
log10 vapour pressure (mmHg): 1.96

Nc1cccc2cccc(N)c12
melting point: 66.5 °C
ready biodegradability: not readily biodegradable
log10 BCF: 0.8
log10 biotransformation half-life (days): -0.73

C=C(C)c1cc(=O)c(O)ccc1CC=C(C)C
melting point: 71.5 °C

Cc1ccc(C(=O)C(C)CN2CCCCC2)cc1 (configuration not stated)
melting point: 176 °C

CCC(C)CCC(C)(O)CC (configuration not stated)
boiling point: 202 °C
melting point: -67.5 °C

c1ccc2cc3cc4ccccc4cc3cc2c1
log10 Koc (L/kg): 5.81
log10 vapour pressure (mmHg): -8.6
melting point: 357 °C

Cc1cccnn1
boiling point: 214 °C
melting point: 184 °C

O=C(C(Cl)(Cl)Cl)C(Cl)(Cl)Cl
boiling point: 203 °C
melting point: -2 °C

CCCCCCC(=O)c1ccccc1
boiling point: 283 °C
melting point: 16.4 °C

O=C(CCl)CCl
boiling point: 173 °C
log10 vapour pressure (mmHg): -0.202
melting point: 45 °C

Nc1ccc2cc(S(=O)(=O)O)cc(S(=O)(=O)O)c2c1
melting point: 274 °C

O=C(O)c1cc(Cl)c(C(=O)O)cc1Cl
melting point: 306 °C

O=S(=O)(O)c1ccc(O)c2ncccc12
melting point: 322 °C

COc1cc(O)c(C(C)=O)c(OC)c1
melting point: 82 °C

Nc1ccccc1C(=O)OCC=Cc1ccccc1
melting point: 61 °C

CCN(CC)C(=O)C(Cl)(Cl)Cl
melting point: 27 °C

Cc1cnc2c(ccc3c(C)c(C)cnc32)c1C
melting point: 278 °C

CCCCOC(=O)c1ccc(C(=O)OCCCC)c(C(=O)OCCCC)c1
ready biodegradability: readily biodegradable

O=C(OC1CCCCC1)c1ccccc1C(=O)OC1CCCCC1
log10 vapour pressure (mmHg): -6.06
melting point: 66 °C
ready biodegradability: readily biodegradable

CCCC(C)C(C)C(C)C (configuration not stated)
boiling point: 161 °C

CCc1nn(C)c(C(=O)NCc2ccc(C(C)(C)C)cc2)c1Cl
melting point: 61.5 °C
log10 BCF: 1.15

CCN(CC)CCNC(=O)c1cc(S(C)(=O)=O)ccc1OC
melting point: 124 °C

CC(O)[C@H]1CC[C@H]2[C@@H]3CC[C@@H]4C[C@@H](O)CC[C@]4(C)[C@H]3CC[C@]12C (some centres not stated)
melting point: 244 °C

CC(C)OP(=O)(OC(C)C)OC(C)C
boiling point: 219 °C

CCCCCCCCN(CCCCCCCC)CCCCCCCC
boiling point: 366 °C
ready biodegradability: readily biodegradable
log10 BCF: 1.93

CCC(C)(C)C(=O)O
boiling point: 186 °C
log10 vapour pressure (mmHg): -0.83
melting point: -14 °C

CC(CCO)C(F)(F)F (configuration not stated)
boiling point: 140 °C

C=C(C)[C@]1(O)C2OC(=O)C1[C@]1(O)[C@H]3O[C@H]3[C@]3(CO3)[C@]1(C)C2O (some centres not stated)
melting point: 225 °C

O=C(C=Cc1ccccc1)c1ccccc1O
melting point: 90 °C

CCc1cccc([N+](=O)[O-])c1
boiling point: 242 °C
melting point: -37.9 °C

CN(C)P(=O)(N(C)C)N(C)C
boiling point: 232 °C
log10 vapour pressure (mmHg): -1.34
melting point: 7.2 °C
ready biodegradability: not readily biodegradable
log10 BCF: -0.3

c1ccc2c(c1)c1ccccc1c1ccccc21
boiling point: 425 °C
log10 biodegradation half-life (days): 2.58
log10 vapour pressure (mmHg): -7.68
melting point: 199 °C
log10 biotransformation half-life (days): -0.08

COCC(F)F
boiling point: 48.5 °C
log10 vapour pressure (mmHg): 2.48

O=C1C(Cl)=C(Nc2ccccc2)C(=O)c2ccccc21
melting point: 215 °C

CCCCCCCCCCCCCCCC(=O)OC[C@H](COP(=O)([O-])OCC[N+](C)(C)C)OC(=O)CCCCCCCCCCCCCCC
melting point: 234 °C

C=C1CC(=O)OC1=O
melting point: 69 °C

Clc1ccc(-c2cc(Cl)ccc2Cl)cc1
log10 Henry constant (atm·m³/mol): -3.72
log10 Koa: 7.92
log10 vapour pressure (mmHg): -3.4
log10 BCF: 4.13
log10 biotransformation half-life (days): 1.91

CC1=CC(=O)CCC1
boiling point: 201 °C
melting point: -21 °C

COc1cc(OC)nc(N=C(O)NS(=O)(=O)c2c(Cl)nc3ccccn23)n1
log10 vapour pressure (mmHg): -9.47

CN(C)c1ccc2c(c1)Sc1cc(N(C)C)ccc1N2C(=O)c1ccccc1
melting point: 195 °C

CC(C)(C)c1cccc(O)c1
boiling point: 240 °C
log10 vapour pressure (mmHg): -1.7
melting point: 42.3 °C
ready biodegradability: not readily biodegradable

c1ccc(N(c2ccccc2)c2ccccc2)cc1
boiling point: 365 °C
log10 Koc (L/kg): 2.26
melting point: 127 °C

CC(C)CC(C)C(C)(C)C (configuration not stated)
boiling point: 148 °C
